What follows are compounds tested on rhinovirus infection-induced inflammatory markers (IL-6, IP-10, and RANTES) in BEAS-2B (assay: rhinovirus infection-induced inflammatory markers in RV-16 infected BEAS-2B cells). Conditions: ibuprofen (20 µM) added with a subset of compounds at time of infection; two days post-infection; in a majority of instances.
Format: cell-based, human
Description: The effect of various identified compounds on rhinovirus infection-induced inflammatory markers (IL-6, IP-10, and RANTES) in the human bronchial epithelia cell line, BEAS-2B, was evaluated. Kaempferol, luteolin, quercetin, scutellarein, all-transretinoic acid, 3-hydroxyflavone, fustin, 3-methylquercetin, fisetin, apigenin, oxymetazoline HCl, chrysin, naringenin, pyrrolidinedithiocarbamate ammonium, 7-hydroxyflavone, myricetin, diosmetin, 4′,7-dihydroxyflavone, or eriodictyol was added to cell culture media at various doses at the time of RV-16 infection of BEAS-2B cells. IL-6, IP-10 and RANTES protein levels were measured three days post-infection. Cytotoxicity of the compounds was determined by the uptake of vital dye Rhinovirus infected BEAS-2B cells not exposed to the compounds served as a positive control, achieving maximum cytokine production. BEAS-2B cells not exposed to rhinovirus or the compounds served as a negative control. […] The study was repeated for a subset of compounds, and ibuprofen (20 µM) was added to the cell media with the compounds at the time of infection. IL-6, IP-10 and RANTES protein levels were measured two days post-infection.

Compound	levels of biomarkers associated with rhinovirus infection (IL-6, IP-10 and RANTES protein levels)
CC(C)Cc1ccc(C(C)C(=O)O)cc1 (centres unmarked) [ibuprofen]	further reduced

Same assay, conditions: result in words

Compound	anti-inflammatory effects in the rhinovirus infection mediated inflammation model
O=C1c2ccc(O)cc2O[C@H](c2ccc(O)c(O)c2)[C@H]1O [fustin]	anti-inflammatory effects
O=c1c(O)c(-c2ccc(O)cc2)oc2cc(O)cc(O)c12 [kaempferol]	anti-inflammatory effects
O=C1C[C@@H](c2ccc(O)c(O)c2)Oc2cc(O)cc(O)c21 [eriodictyol]	anti-inflammatory effects
C[C@@H]1O[C@@H](OC[C@H]2O[C@@H](Oc3c(-c4ccc(OCCO)c(OCCO)c4)oc4cc(OCCO)cc(O)c4c3=O)[C@H](O)[C@@H](O)[C@@H]2O)[C@H](O)[C@H](O)[C@H]1O [troxerutin]	anti-inflammatory effects
O=c1c(O)c(-c2ccc(O)c(O)c2)oc2cc(O)cc(O)c12 [quercetin]	anti-inflammatory effects
CC1=C(/C=C/C(C)=C/C=C/C(C)=C/C(=O)O)C(C)(C)CCC1 [all-transretinoic acid]	anti-inflammatory effects
O=c1c(O)c(-c2ccccc2)oc2ccccc12 [3-hydroxyflavone]	anti-inflammatory effects
O=c1cc(-c2ccc(O)c(O)c2)oc2cc(O)cc(O)c12 [luteolin]	anti-inflammatory effects
O=c1c(-c2ccc(O)cc2)coc2cc(O)cc(O)c12 [genistein]	anti-inflammatory effects
Cc1cc(C(C)(C)C)c(O)c(C)c1CC1=NCCN1 [oxymetazoline]	anti-inflammatory effects
O=c1c(O)c(-c2ccc(O)c(O)c2)oc2cc(O)ccc12 [fisetin]	anti-inflammatory effects
COc1ccc(-c2cc(=O)c3c(O)cc(O)cc3o2)cc1O [diosmetin]	anti-inflammatory effects
O=c1cc(-c2ccccc2)oc2cc(O)ccc12 [7-hydroxyflavone]	anti-inflammatory effects
O=c1c(O)c(-c2cc(O)c(O)c(O)c2)oc2cc(O)cc(O)c12 [Myricetin]	anti-inflammatory effects
O=c1cc(-c2ccc(O)cc2)oc2cc(O)ccc12 [4′,7-dihydroxyflavone]	anti-inflammatory effects
O=C1C[C@@H](c2ccc(O)cc2)Oc2cc(O)cc(O)c21 [naringenin]	anti-inflammatory effects
O=c1c(-c2ccc(O)cc2)coc2cc(O)ccc12 [daidzein]	anti-inflammatory effects
3-methylquercetin	anti-inflammatory effects
O=c1cc(-c2ccc(O)cc2)oc2cc(O)cc(O)c12 [Apigenin]	anti-inflammatory effects

From US20170042883A1, “Methods for Detecting and Treating Rhinovirus Infection” (The Procter & Gamble Company, priority 2011, published 2017)
